US20220323383A1, “SMALL-MOLECULAR ADJUVANTS AND IMPLEMENTATIONS THEREOF” (JAWAHARLAL NEHRU CENTRE FOR ADVANCED SCIENTIFIC RESEARCH, priority 2019, published 2022)
Where a name gives a salt, the structure may show the parent alone.

Key:
Format in all cases: cell-based
K. pneumoniae R3934 [1] = experiment: Chequerboard combination efficacy of adjuvant with antibiotics
Description: (§1) All the solvents were of reagent grade, which were distilled and dried before its use. All the reagents were purchased from Sigma-Aldrich, Alfa-Aesar, S.D. Fine, Avra and Spectrochem, and were used without further purification. Analytical thin layer chromatography (TLC) was performed on E. Merck TLC plates pre-coated with silica gel 60 F254 and visualization was carried out using UV light and Iodine. Column chromatography was performed on silica gel (60-120 mesh) using different ratio of chloroform and methanol solvent system. Nuclear magnetic resonance spectra were recorded on Bruker (AV-400) 400 MHz spectrometer in deuterated solvents. Mass spectra were obtained using 6538-UHD Accurate mass Q-TOF LC-MS instrument. For optical density measurement during bacteriology experiments, Tecan Infinite Pro series M200 Microplate Reader was used. Bacterial strains, A. baumannii (R674), P. aeruginosa (R590), E. coli (R3336) and K. pneumoniae (R3934) were used for the studies.
(§2) The combination efficacy with antibiotics from different classes and individual antibacterial activity of the synthesized adjuvants was evaluated against the above mentioned MDR and NDM-1 strains of Gram-negative bacteria. All the bacteria were grown in peptone. The bacterial samples were freeze dried and stored at −80° C. 3 μl of these stocks were added to 3 mL of peptone and the culture was grown for 6 h at 37° C. prior to the experiments.
(§3) All synthesized compounds were assayed for their antibacterial activity in combination with antibiotics in a modified chequerboard micro-dilution broth format. Stock solutions were made by serially diluting the compounds using autoclaved millipore water. The bacterial freeze dried stock samples were stored at −80° C. About 3 μL of these stocks were added to about 3 mL of the respective broth and the culture was grown for about 6 h at about 37° C. with prior to the experiments. This 6 h grown culture gives about 10^8 cfu/mL in case of A. baumannii R674, P. aeruginosa R590, E. coli R3336 and K. pneumoniae R3934 which were determined by spread plating method. This 6 h grown culture was diluted to give effective cell concentration of 10^5 cfu/mL, and then used for the chequerboard assay. Adjuvants and antibiotics were serially diluted in two-fold, in sterile millipore water. 25 μL of these serial dilutions of the antibiotics and 25 μL of compounds were added to the wells of 96 well plate followed by the addition of about 150 μL of bacterial solution (˜10^5 cfu/mL). The plates were then incubated at about 37° C., 150 rpm in the incubator and O.D at 600 nm was recorded at 24 h using TECAN (Infinite series, M200 pro) Plate Reader. The wells with similar OD as the media control contained the required concentration of the antibiotic and adjuvant for antibacterial efficacy. The potentiation ability of the adjuvants was determined by calculating the potentiation factor and the Fractional Inhibitory concentration (FIC) index. Fractional Inhibitory Concentration (FIC) is expressed as, FIC=[X]/MICX, where [X] is the lowest inhibitory concentration of antibiotic in the presence of the adjuvant. Whereas FIC index is expressed as, FICI=FICantibiotic+FICadjuvant. The values of FIC index give an insight about the nature of the combination. Potentiation factor which means fold-reduction in the MIC of the antibiotic, when used in combination with the adjuvant was also determined. Potentiation factor=[Minimum inhibitory concentration (MIC) of antibiotic in absence of adjuvant]/[MIC of antibiotic in presence of adjuvant]. […] The combination efficacies of adjuvants with various antibiotics are furnished in Table 1. It should be noted that various other resistant strains of bacteria (Gram-positive and Gram-negative) can be tested with a number of other antibiotics to check the potentiation capacity of the adjuvants.

E. coli R3336 [2] = experiment: as above
Description: as §1, §2, §3

P. aeruginosa R590 = experiment: Individual antibacterial activity (MIC) of adjuvants; settings: Pseudomonas aeruginosa, R590, read-out: MIC against clinical isolates of bacteria
Description: as §2, §3

K. pneumoniae R3934 [3] = experiment: as above; settings: Klebsiella pneumoniae, R3934, read-out: MIC against clinical isolates of bacteria
Description: as §2, §3

E. coli R3336 [4] = experiment: as above; settings: Escherichia coli, R3336, read-out: MIC against clinical isolates of bacteria
Description: as §2, §3

A. baumannii R674 = experiment: as above; settings: Acinetobacter baumannii, R674, read-out: MIC against clinical isolates of bacteria
Description: as §2, §3

human RBCs = experiment: Haemolytic activity; settings: concentration at which 50% of human blood cells are lysed; 1 h at 37° C.
Description: Erythrocytes were isolated from freshly drawn, heparanized human blood and re-suspended to 5 vol % in PBS (pH 7.4). In a 96-well microtiter plate, 150 μl of erythrocyte suspension was added to 50 μl of serially diluted compound. Two controls were made, one without compound and other with 50 μl of 1 vol % solution of Triton X-100. The plate was incubated for 1 h at 37° C. The plate was then centrifuged at 3,500 rpm for 5 min, 100 μl of the supernatant from each well was transferred to a fresh 96-well microtiter plate, and A540 was measured. Percentage of hemolysis was determined as (A−A0)/(Atotal−A0)×100, where A is the absorbance of the test well, A0 the absorbance of the negative controls (without compound), and Atotal the absorbance of 100% hemolysis wells (with Triton X-100), all at 540 nm.
Toxicity studies of the compounds were done on freshly drawn human RBCs. Toxicity of the compounds were defined by their HC50 values (Table 2), i.e. the concentration of compound at which 50% of the blood cells are lysed.

Compound | FICI (K. pneumoniae R3934 [1]; antibiotic Fusidic acid) | MIC of antibiotic in presence of adjuvant (K. pneumoniae R3934 [1]; antibiotic Fusidic acid) [µg/mL] | Potentiation factor (K. pneumoniae R3934 [1]; antibiotic Fusidic acid) | FICI (K. pneumoniae R3934 [1]; antibiotic Linezolid) | MIC of antibiotic in presence of adjuvant (K. pneumoniae R3934 [1]; antibiotic Linezolid) [µg/mL] | Potentiation factor (K. pneumoniae R3934 [1]; antibiotic Linezolid) | FICI (K. pneumoniae R3934 [1]; antibiotic Minocycline) | MIC of antibiotic in presence of adjuvant (K. pneumoniae R3934 [1]; antibiotic Minocycline) [µg/mL] | Potentiation factor (K. pneumoniae R3934 [1]; antibiotic Minocycline) | FICI (K. pneumoniae R3934 [1]; antibiotic Rifampicin) | MIC of antibiotic in presence of adjuvant (K. pneumoniae R3934 [1]; antibiotic Rifampicin) [µg/mL] | Potentiation factor (K. pneumoniae R3934 [1]; antibiotic Rifampicin) | FICI (E. coli R3336 [2]; antibiotic Fusidic acid) | MIC of antibiotic in presence of adjuvant (E. coli R3336 [2]; antibiotic Fusidic acid) [µg/mL] | Potentiation factor (E. coli R3336 [2]; antibiotic Fusidic acid) | MIC of antibiotic in presence of adjuvant (E. coli R3336 [2]; antibiotic Linezolid) | FICI (E. coli R3336 [2]; antibiotic Minocycline) | MIC of antibiotic in presence of adjuvant (E. coli R3336 [2]; antibiotic Minocycline) [µg/mL] | Potentiation factor (E. coli R3336 [2]; antibiotic Minocycline) | FICI (E. coli R3336 [2]; antibiotic Rifampicin) | further results
NCCCC[C@H](N)C(=O)NCCCCCCN(CCCCCCNC(=O)[C@@H](N)CCCCN)C(=O)Cc1cccc2ccccc12 [Compound 13, N,N-bis-[(6-(^LLys)amido)hexyl] naphthyl ethanamide tetrakistrifluoroacetate] | <0.133 | 4 | 128 | <0.25 | 64 | >8 | <0.07 | 0.5 | 128 | <0.064 | 1 | 512 | <0.125 | 32 | >16 | No potentiation | <0.031 | 0.5 | 64 | <0.031 | MIC of antibiotic in presence of adjuvant (E. coli R3336 [2]; antibiotic Rifampicin): 8 µg/mL; Potentiation factor (E. coli R3336 [2]; antibiotic Rifampicin): 64; MIC (P. aeruginosa R590): 512 µg/mL; MIC (K. pneumoniae R3934 [3]): > 512 µg/mL; MIC (E. coli R3336 [4]): > 512 µg/mL; MIC (A. baumannii R674): 512 µg/mL; HC50 (human RBCs): >1024 µg/mL
NCCCC[C@H](N)C(=O)NCCCCCCN(CCCCCCNC(=O)[C@@H](N)CCCCN)C(=O)CC(c1ccccc1)c1ccccc1 [Compound 14, N,N-bis-[(6-(^LLys)amido)hexyl] 3,3-diphenyl propanamide tetrakis trifluoroacetate] | <0.1289 | 2 | 256 | <0.1328 | 64 | >8 | <0.1328 | 0.5 | 128 | <0.126 | 0.5 | 1024 | <0.0625 | 16 | >32 | No potentiation | <0.0156 | <0.25 | >128 | <0.047 | MIC of antibiotic in presence of adjuvant (E. coli R3336 [2]; antibiotic Rifampicin): 4 µg/mL; Potentiation factor (E. coli R3336 [2]; antibiotic Rifampicin): 128; MIC (P. aeruginosa R590): > 512 µg/mL; MIC (K. pneumoniae R3934 [3]): > 512 µg/mL; MIC (E. coli R3336 [4]): > 512 µg/mL; MIC (A. baumannii R674): > 512 µg/mL; HC50 (human RBCs): >1024 µg/mL
